Our source for the IC50 and LD50 values is ChEMBL document CHEMBL2021772, “Synthesis and antitumor-evaluation of 1,3,4-thiadiazole-containing benzisoselenazolone derivatives” (Bioorg Med Chem Lett, 2012).

Each structure is given as a SMILES string.

Tested on in one series: not listed separately
As to the kind of experiment: Antiproliferative activity against human […] cells after 48 hrs by CCK-8 assay. Type of series: functional, cell-based.
Conditions: not given
Consider `O=c1c2ccccc2[se]n1-c1nnc(-c2ccccc2)s1`, for which it took 20.5 µM to reach half-maximal inhibition (IC50).

The compound `O=c1c2ccccc2[se]n1-c1nnc(-c2ccc(F)cc2)s1` displayed an IC50 of 42.9 µM. This IC50 lies about 2.1-fold higher than the previous one.

`O=c1c2ccccc2[se]n1-c1nnc(-c2ccccc2Cl)s1` showed an IC50 of 40.2 µM.

Consider `O=c1c2ccccc2[se]n1-c1nnc(-c2ccc(Cl)cc2)s1`, for which 24.4 µM corresponded to half-maximal inhibition (IC50). This IC50 lies about 1.6-fold lower than the previous one.

In turn, `O=c1c2ccccc2[se]n1-c1nnc(-c2ccccc2Br)s1` registered an IC50 of 27.4 µM. The IC50 values of the last two compounds are within 1.5-fold of each other.

With `O=c1c2ccccc2[se]n1-c1nnc(-c2ccc(Br)cc2)s1`, half-maximal inhibition (IC50) was put at 68.2 µM. Against the preceding compound, the IC50 is about 2.5-fold higher.

`Cc1ccccc1-c1nnc(-n2[se]c3ccccc3c2=O)s1` came in with an IC50 of 19.4 µM.

As for `Cc1cccc(-c2nnc(-n3[se]c4ccccc4c3=O)s2)c1`, 17.8 µM corresponded to half-maximal inhibition (IC50).

In the case of `Cc1ccc(-c2nnc(-n3[se]c4ccccc4c3=O)s2)cc1`, the IC50 was determined as 16.6 µM.

`COc1ccccc1-c1nnc(-n2[se]c3ccccc3c2=O)s1`: the IC50 stood at 14.3 µM.

For the compound `COc1ccc(-c2nnc(-n3[se]c4ccccc4c3=O)s2)cc1`, 16.4 µM corresponded to half-maximal inhibition (IC50).

As to `COc1cc(-c2nnc(-n3[se]c4ccccc4c3=O)s2)cc(OC)c1OC`, the IC50 is 7.15 µM.

In turn, `O=c1c2ccccc2[se]n1-c1nnc(-c2ccccc2[N+](=O)[O-])s1` displayed an IC50 of 22.5 µM.

For `O=c1c2ccccc2[se]n1-c1nnc(-c2cccc([N+](=O)[O-])c2)s1`, half-maximal inhibition (IC50) required 27.3 µM.

Turning to `O=c1c2ccccc2[se]n1-c1nnc(-c2cc([N+](=O)[O-])cc([N+](=O)[O-])c2)s1`, the IC50 turned out to be 21.6 µM.

The compound `O=c1c2ccccc2[se]n1-c1ccccc1` [EBSELEN] showed an IC50 of 18.3 µM.

A further series has as its system MCF7. Kind of series: Antiproliferative activity against human MCF7 cells after 48 hrs by CCK-8 assay. The settings on record: MCF7, 48 h. The series is classed as functional, cell-based.
In the case of `O=c1c2ccccc2[se]n1-c1nnc(-c2ccccc2)s1`, the IC50 was determined as 4.02 µM.

In turn, `O=c1c2ccccc2[se]n1-c1nnc(-c2ccc(F)cc2)s1` yielded an IC50 of 61.5 µM.

Compound `O=c1c2ccccc2[se]n1-c1nnc(-c2ccccc2Cl)s1` yielded a half-inhibitory concentration (IC50) of 4.43 µM.

The compound `O=c1c2ccccc2[se]n1-c1nnc(-c2ccc(Cl)cc2)s1` registered an IC50 of 19.4 µM.

On to `O=c1c2ccccc2[se]n1-c1nnc(-c2ccccc2Br)s1`, for which 59.4 µM corresponded to half-maximal inhibition (IC50). Against the preceding compound, the IC50 is about 3.1-fold higher.

Compound `O=c1c2ccccc2[se]n1-c1nnc(-c2ccc(Br)cc2)s1` came in with an IC50 of 43.3 µM.

In turn, `Cc1ccccc1-c1nnc(-n2[se]c3ccccc3c2=O)s1` displayed an IC50 of 36.8 µM.

Regarding `Cc1cccc(-c2nnc(-n3[se]c4ccccc4c3=O)s2)c1`, the IC50 came out at 19.9 µM.

The compound `Cc1ccc(-c2nnc(-n3[se]c4ccccc4c3=O)s2)cc1` had an IC50 of 18.7 µM.

Compound `COc1ccccc1-c1nnc(-n2[se]c3ccccc3c2=O)s1` came in with an IC50 of 3.92 µM.

The compound `COc1ccc(-c2nnc(-n3[se]c4ccccc4c3=O)s2)cc1` yielded an IC50 of 10 µM.

`COc1cc(-c2nnc(-n3[se]c4ccccc4c3=O)s2)cc(OC)c1OC`: inhibition was half-maximal at 3.44 µM (IC50).

For the compound `O=c1c2ccccc2[se]n1-c1nnc(-c2ccccc2[N+](=O)[O-])s1`, the IC50 was found to be 31.2 µM.

For `O=c1c2ccccc2[se]n1-c1nnc(-c2cccc([N+](=O)[O-])c2)s1`, the IC50 is 29.2 µM.

Regarding `O=c1c2ccccc2[se]n1-c1nnc(-c2cc([N+](=O)[O-])cc([N+](=O)[O-])c2)s1`, the IC50 came out at 37.8 µM.

On to `O=c1c2ccccc2[se]n1-c1ccccc1` [EBSELEN], for which the IC50 was found to be 15 µM.

The test system of another series is A549. As to the kind of experiment: Antiproliferative activity against human A549 cells after 48 hrs by CCK-8 assay. The series is classed as functional, cell-based. The settings on record: A549, 48 h.
`O=c1c2ccccc2[se]n1-c1nnc(-c2ccccc2)s1` returned an IC50 of 2.48 µM.

Take `O=c1c2ccccc2[se]n1-c1nnc(-c2ccc(F)cc2)s1`: the IC50 amounted to 21.1 µM.

In turn, `O=c1c2ccccc2[se]n1-c1nnc(-c2ccccc2Cl)s1` gave an IC50 of 10.1 µM.

`O=c1c2ccccc2[se]n1-c1nnc(-c2ccc(Cl)cc2)s1` displayed an IC50 of 10.4 µM.

The compound `O=c1c2ccccc2[se]n1-c1nnc(-c2ccccc2Br)s1` showed an IC50 of 12.7 µM.

Take `O=c1c2ccccc2[se]n1-c1nnc(-c2ccc(Br)cc2)s1`: it took 39.1 µM to reach half-maximal inhibition (IC50).

The compound `Cc1ccccc1-c1nnc(-n2[se]c3ccccc3c2=O)s1` displayed an IC50 of 18.6 µM.

Take `Cc1cccc(-c2nnc(-n3[se]c4ccccc4c3=O)s2)c1`: the IC50 came to 14.8 µM.

`Cc1ccc(-c2nnc(-n3[se]c4ccccc4c3=O)s2)cc1` had an IC50 of 13.4 µM.

In turn, `COc1ccccc1-c1nnc(-n2[se]c3ccccc3c2=O)s1` displayed an IC50 of 3.12 µM.

In turn, `COc1ccc(-c2nnc(-n3[se]c4ccccc4c3=O)s2)cc1` showed an IC50 of 5.93 µM.

`COc1cc(-c2nnc(-n3[se]c4ccccc4c3=O)s2)cc(OC)c1OC`: the IC50 is 3.24 µM.

`O=c1c2ccccc2[se]n1-c1nnc(-c2ccccc2[N+](=O)[O-])s1` displayed an IC50 of 11.4 µM.

With `O=c1c2ccccc2[se]n1-c1nnc(-c2cccc([N+](=O)[O-])c2)s1`, half-maximal inhibition (IC50) was put at 16.1 µM.

`O=c1c2ccccc2[se]n1-c1nnc(-c2cc([N+](=O)[O-])cc([N+](=O)[O-])c2)s1` gave an IC50 of 17.9 µM.

`O=c1c2ccccc2[se]n1-c1ccccc1` [EBSELEN]: half-maximal inhibition (IC50) required 3.75 µM.

Tested on in the next series: not listed separately
Kind of series: Toxicity in rat. Type of series: organism-based. Conditions: in vivo.
The compound `O=c1c2ccccc2[se]n1-c1ccccc1` [EBSELEN] displayed an LD50 of 6180 mg/kg.
